Measurements: the supplement of paper PMC10331698
± gives the standard deviation of the averaged measurements.

What was measured:
Assay in all cases: level (log10 ratio to DMSO vehicle control); higher = higher biomarker level / cell amount than vehicle control
[1] = compound: FC(F)(F)C(F)(F)C(F)(F)C(F)(F)C(F)(F)C(F)(F)C(F)(F)I [1-Iodopentadecafluoroheptane]; settings: in DMSO
Method: (§1)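 BioMAP Diversity Plus panel of 12 human primary cell co-culture systems (3C, 4H, LPS, SAg, BT, BF4T, BE3C, CASM3C, HDF3CGF, KF3CT, MyoF, Mphg). Compounds were added 1 h before stimulation and left for 24 h (MyoF 48 h; BT 72 h for soluble read-outs or 6 d for IgG). Biomarkers were read by ELISA, cytotoxicity by SRB, PBMC viability and proliferation by Alamar Blue. Each well value was divided by the mean of 8 DMSO control wells on the same plate and log10 transformed; duplicate blinded samples were tested at 4 concentrations.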

[2] = compound: COC(=O)C(F)(F)C(F)(F)OC(F)(C(F)(F)F)C(F)(F)OC(F)=C(F)F [Methyl perfluoro(3-(1-ethenyloxypropan-2-yloxy)propanoate)]; settings: in DMSO
Method: as §1

[3] = compound: O=S(=O)(O)C(F)(F)C(F)(F)C(F)(F)C(F)(F)C(F)(F)C(F)(F)C(F)(F)C(F)(F)C(F)(F)C(F)(F)F [Sodium perfluorodecanesulfonate]; settings: in DMSO
Method: as §1

[4] = compound: O=C(O)C(F)(F)C(F)(F)C(F)(F)C(F)(F)C(F)(F)C(F)(F)C(F)(F)C(F)(F)C(F)(F)C(F)F [11-H-Perfluoroundecanoic acid]; settings: in DMSO
Method: as §1

[5] = compound: O=C(O)C=CC(F)(C(F)(F)F)C(F)(F)F [3-(Perfluoroisopropyl)-2-propenoic acid]; settings: in DMSO
Method: as §1

[6] = compound: C=C(C)C(=O)OCCC(F)(F)C(F)(F)C(F)(F)C(F)(F)C(F)(F)C(F)(F)F [6:2 Fluorotelomer methacrylate]; settings: in DMSO
Method: as §1

[7] = compound: FC(F)(F)C(F)(F)C(F)(F)CI [Heptafluorobutyl iodide]; settings: in DMSO
Method: as §1

[8] = compound: C=CC(=O)OCC(F)(F)C(F)(F)C(F)(F)COC(=O)C=C [1H,1H,5H,5H-Perfluoro-1,5-pentanediol diacrylate]; settings: 6700 nM; in DMSO
Method: as §1

Row | Test System | level (log10) ([1]; 6700 nM) | level (log10) ([1]; 20000 nM) | level (log10) ([2]; 6700 nM) | level (log10) ([2]; 20000 nM) | level (log10) ([3]; 1500 nM) | level (log10) ([3]; 4400 nM) | level (log10) ([3]; 13000 nM) | level (log10) ([3]; 40000 nM) | level (log10) ([4]; 6700 nM) | level (log10) ([4]; 20000 nM) | level (log10) ([5]; 6700 nM) | level (log10) ([5]; 20000 nM) | level (log10) ([5]; 60000 nM) | level (log10) ([6]; 6700 nM) | level (log10) ([6]; 20000 nM) | level (log10) ([6]; 60000 nM) | level (log10) ([7]; 6700 nM) | level (log10) ([7]; 20000 nM) | level (log10) ([7]; 60000 nM) | level (log10) [8]
1 | 4H:CD106/VCAM-1 | -0.018 ± 0.0042 | -0.0005 ± 0.0035 | -0.01 ± 0.0028 | -0.0385 ± 0.0035 | -0.018 ± 0.011 | -0.0295 ± 0.005 | -0.007 ± 0.0085 | -0.0615 ± 0.0092 | -0.0135 ± 0.016 | -0.0015 ± 0.03 | 0.0275 ± 0.011 | -0.0175 ± 0.019 | 0.016 ± 0.0014 | -0.002 ± 0.021 | -0.013 ± 0.0099 | -0.0045 ± 0.015 | -0.0215 ± 0.005 | -0.0345 ± 0.026 | 0.0155 ± 0.012 | -0.032 ± 0.045
2 | 4H:SRB | 0.0015 ± 0.0092 | 0.0125 ± 0.005 | -0.0015 ± 0.00071 | 0.007 ± 0.014 | -0.003 ± 0.0042 | -0.004 ± 0.0071 | -0.017 ± 0.0014 | -0.023 ± 0.0099 | 0.0145 ± 0.0092 | 0.0105 ± 0.018 | 0.001 ± 0.018 | -0.0045 ± 0.029 | 0.004 ± 0.021 | -0.0005 ± 0.0035 | 0.0005 ± 0.016 | 0.008 ± 0.014 | -0.001 ± 0.0028 | 0.0045 ± 0.0064 | 0.011 ± 0.0099 | -0.0105 ± 0.019
3 | BE3C:Keratin 8/18 | -0.0075 ± 0.011 | -0.012 | -0.0095 ± 0.049 | -0.004 ± 0.025 | 0.0095 ± 0.015 | 0.0065 ± 0.023 | -0.0345 ± 0.012 | -0.302 ± 0.0071 | -0.0125 ± 0.025 | -0.0805 ± 0.019 | 0.0015 ± 0.019 | -0.0065 ± 0.012 | 0.002 ± 0.0028 | -0.051 ± 0.055 | -0.0445 ± 0.053 | -0.0305 ± 0.035 | 0.0025 ± 0.0078 | -0.0025 ± 0.00071 | 0.005 ± 0.013 | -0.0055 ± 0.044
4 | BE3C:MMP-1 | -0.0205 ± 0.0078 | -0.011 | 0.102 ± 0.025 | 0.176 ± 0.0092 | -0.0225 ± 0.053 | 0.0585 ± 0.059 | 0.239 ± 0.011 | 0.153 ± 0.0071 | 0.068 ± 0.013 | -0.132 ± 0.012 | 0.0495 ± 0.06 | 0.034 ± 0.061 | 0.085 ± 0.0028 | 0.0525 ± 0.0035 | 0.046 ± 0.0057 | 0.0375 ± 0.0078 | 0 ± 0.0014 | -0.0085 ± 0.005 | 0.02 ± 0.0099 | 0.0115 ± 0.0078
5 | BE3C:MMP-9 | -0.014 ± 0.035 | -0.0465 ± 0.015 | -0.041 ± 0.038 | -0.004 ± 0.0057 | -0.0125 ± 0.04 | 0.0105 ± 0.005 | -0.0785 ± 0.013 | -0.302 ± 0.041 | -0.058 ± 0.04 | -0.277 ± 0.049 | -0.018 ± 0.0042 | -0.008 ± 0.0028 | 0.007 ± 0.04 | 0.014 ± 0.0071 | 0.015 ± 0.0042 | 0.025 ± 0.011 | -0.005 ± 0.0014 | -0.0085 ± 0.0064 | 0.0115 ± 0.015 | -0.0485 ± 0.0078
6 | BE3C:PAI-I | -0.0185 ± 0.047 | -0.0245 ± 0.037 | 0.0185 ± 0.019 | 0.037 ± 0.0071 | -0.0925 ± 0.036 | -0.106 ± 0.022 | -0.26 ± 0.058 | -0.406 ± 0.013 | -0.082 ± 0.018 | -0.367 ± 0.047 | 0.0105 ± 0.00071 | -0.003 ± 0.0042 | 0.0065 ± 0.023 | -0.0115 ± 0.037 | -0.019 ± 0.034 | -0.016 ± 0.033 | -0.018 ± 0.017 | -0.027 ± 0.025 | -0.0085 ± 0.016 | 0.0535 ± 0.0064
7 | BE3C:SRB | 0.0095 ± 0.00071 | 0.0085 ± 0.0035 | -0.005 ± 0.0042 | 0.001 ± 0.0057 | 0.0005 ± 0.0021 | 0 ± 0.0014 | -0.0555 ± 0.028 | -0.368 ± 0.069 | -0.0095 ± 0.0064 | -0.235 ± 0.011 | -0.0005 ± 0.005 | -0.002 ± 0.0014 | 0.013 ± 0.021 | 0.0015 ± 0.0035 | 0.003 ± 0.0028 | 0.0025 ± 0.0021 | 0.002 ± 0.0028 | -0.003 ± 0.0071 | 0.0035 ± 0.00071 | -0.0035 ± 0.0021
8 | BE3C:tPA | -0.006 ± 0.0042 | 0.0075 ± 0.022 | -0.114 ± 0.033 | -0.142 ± 0.018 | 0.12 ± 0.017 | 0.186 ± 0.0028 | 0.191 ± 0.013 | -0.103 ± 0.0057 | 0.036 ± 0.058 | -0.338 ± 0.018 | -0.004 ± 0.045 | -0.0215 ± 0.042 | 0.022 ± 0.0071 | -0.0525 ± 0.036 | -0.053 ± 0.018 | -0.056 ± 0.013 | -0.0095 ± 0.029 | -0.024 ± 0.011 | 0.015 ± 0.044 | -0.0565 ± 0.033
9 | BE3C:uPA | -0.0135 ± 0.0035 | -0.009 ± 0.0099 | 0.0005 ± 0.0035 | 0.0305 ± 0.012 | -0.027 ± 0.0057 | -0.032 ± 0.034 | -0.019 ± 0.017 | -0.051 ± 0.027 | -0.005 ± 0.02 | -0.211 ± 0.029 | -0.0045 ± 0.005 | -0.001 ± 0.0057 | 0.0045 ± 0.0021 | 0.0055 ± 0.0064 | 0.0085 ± 0.0092 | 0.019 ± 0.021 | -0.0015 ± 0.00071 | -0.0105 ± 0.00071 | -0.0025 ± 0.0035 | -0.015 ± 0.0028
10 | CASM3C:CCL2/MCP-1 | -0.01 ± 0.0042 | 0.005 ± 0.018 | -0.001 ± 0.0014 | 0.008 ± 0.016 | -0.022 ± 0.023 | -0.024 ± 0.0028 | 0.0115 ± 0.026 | 0.0095 ± 0.0064 | 0.0005 ± 0.0035 | 0.012 ± 0.024 | 0.007 ± 0.017 | -0.0055 ± 0.011 | 0.023 ± 0.044 | -0.005 ± 0.0028 | -0.011 ± 0.0014 | -0.0015 ± 0.021 | -0.0055 ± 0.0021 | -0.021 ± 0.011 | 0.018 ± 0.045 | 0 ± 0.0085
11 | CASM3C:CD87/uPAR | -0.019 ± 0.031 | -0.0195 ± 0.018 | -0.015 ± 0.027 | -0.0165 ± 0.026 | 0.0455 ± 0.021 | -0.0065 ± 0.03 | 0.042 ± 0.0042 | 0.0075 ± 0.015 | -0.0165 ± 0.011 | -0.025 ± 0.0071 | -0.006 ± 0.0057 | -0.0135 ± 0.012 | -0.015 ± 0.0042 | -0.014 ± 0.028 | -0.0285 ± 0.023 | -0.0355 ± 0.023 | -0.017 ± 0.0042 | 0.0205 ± 0.029 | -0.0015 ± 0.00071 | -0.0095 ± 0.022
12 | CASM3C:CD141/Thrombomodulin | -0.0595 ± 0.021 | -0.0445 ± 0.021 | -0.0085 ± 0.005 | 0.023 ± 0.018 | 0.0625 ± 0.015 | 0.034 ± 0.0028 | 0.03 ± 0.038 | 0.166 ± 0.0092 | -0.015 ± 0.021 | -0.0085 ± 0.019 | -0.0215 ± 0.011 | -0.001 ± 0.023 | 0.0075 ± 0.033 | 0.016 ± 0.071 | 0.021 ± 0.067 | 0.03 ± 0.081 | -0.025 ± 0.0099 | -0.039 ± 0.0085 | -0.0125 ± 0.013 | 0.081 ± 0.0042
13 | CASM3C:CD142/Tissue Factor | -0.0185 ± 0.016 | -0.043 ± 0.024 | 0.0075 ± 0.022 | 0.0285 ± 0.012 | 0.044 ± 0.025 | -0.0045 ± 0.021 | 0.0295 ± 0.036 | 0.082 ± 0.016 | -0.031 ± 0.0085 | -0.0365 ± 0.012 | -0.037 ± 0.028 | -0.0315 ± 0.053 | -0.01 ± 0.067 | -0.0075 ± 0.033 | -0.0175 ± 0.029 | -0.0035 ± 0.0078 | 0.0065 ± 0.0035 | -0.0175 ± 0.0035 | 0.0095 ± 0.056 | -0.0325 ± 0.015
14 | CASM3C:CXCL8/IL-8 | -0.0165 ± 0.016 | 0.001 ± 0.017 | -0.004 ± 0.0085 | 0.013 ± 0.0085 | 0.025 ± 0.016 | 0.01 ± 0.037 | 0.03 ± 0.021 | 0.064 ± 0.034 | -0.001 ± 0.0057 | -0.011 ± 0.0014 | 0.008 ± 0.025 | 0.0025 ± 0.016 | 0.0225 ± 0.0021 | 0.0185 ± 0.018 | 0.0165 ± 0.012 | 0.0205 ± 0.00071 | 0.0015 ± 0.012 | -0.014 ± 0.014 | -0.001 ± 0.014 | -0.0125 ± 0.00071
